Legend:
[1] = test system: PGC-1α; assay: PGC-1α protein level in adipocytes (Western blot); format: cell-based, murine; settings: 3T3-L1 adipocytes, 1.0 μM, maximum, p<0.05 vs. control
Experimental: Murine 3T3-L1 pre-adipocytes (American Type Culture Collection) were cultured in Dulbecco's Modified Eagle's Medium (DMEM) supplemented with 10% fetal bovine serum and allowed to reach confluence. Differentiation of pre-adipocytes was initiated with 1 μM insulin, 0.25 μM dexamethasone and 0.5 mM 3-isobutyl-1-methylxanthine in DMEM, supplemented with 10% fetal bovine serum. After 48 h, the culture medium was replaced with DMEM supplemented with 10% fetal bovine serum and 1 μM insulin. The culture medium was changed every other day with DMEM containing 10% fetal bovine serum. […] After treatment, cells were washed twice with ice-cold PBS, lysed in sample buffer (62.5 mM Tris-Cl pH 6.8, 2% SDS, 5 mM DTT) at room temperature and vortexed. Cell lysates were then boiled for 5 minutes and cleared by centrifugation (13,000 rpm, 10 minutes at 4° C.). Protein concentration was determined using the Bio-Rad DC protein assay. The soluble lysates (10 μg per lane) were subjected to 10% SDS-PAGE, proteins were then transferred to nitrocellulose membranes and blocked with 5% non-fat milk/TBST for 1 h at room temperature. […] Western blots were developed using ECL (Roche Manheim, Germany) and quantified by scanning densitometry.

[2] = test system: mitochondrial electron transport complex I; assay: Mitochondrial complex I protein expression in adipocytes (Western blot); format: cell-based, murine; settings: 3T3-L1 adipocytes, 48 hrs
Experimental: Murine 3T3-L1 pre-adipocytes (American Type Culture Collection) were cultured in Dulbecco's Modified Eagle's Medium (DMEM) supplemented with 10% fetal bovine serum and allowed to reach confluence. Differentiation of pre-adipocytes was initiated with 1 μM insulin, 0.25 μM dexamethasone and 0.5 mM 3-isobutyl-1-methylxanthine in DMEM, supplemented with 10% fetal bovine serum. After 48 h, the culture medium was replaced with DMEM supplemented with 10% fetal bovine serum and 1 μM insulin. The culture medium was changed every other day with DMEM containing 10% fetal bovine serum. […] After treatment, cells were washed twice with ice-cold PBS, lysed in sample buffer (62.5 mM Tris-Cl pH 6.8, 2% SDS, 5 mM DTT) at room temperature and vortexed. Cell lysates were then boiled for 5 minutes and cleared by centrifugation (13,000 rpm, 10 minutes at 4° C.). Protein concentration was determined using the Bio-Rad DC protein assay. The soluble lysates (10 μg per lane) were subjected to 10% SDS-PAGE, proteins were then transferred to nitrocellulose membranes and blocked with 5% non-fat milk/TBST for 1 h at room temperature. Membranes were incubated with primary antibodies directed against PPAR-y (1:1000), PGC-1α (1:1000), α-tubulin (1:10 000), Complex I (1:2000), Complex II (1:2000), Complex III (1:2000) and Complex V (1:2000) in 5% milk/TBST at 4° C. overnight. After washing membranes with TBST three times, membranes were incubated with horseradish peroxidase-conjugated secondary antibody for 1 h at room temperature. Western blots were developed using ECL (Roche Manheim, Germany) and quantified by scanning densitometry.

[3] = test system: mice (C57BL/6NCrl); assay: Maximal running performance on a treadmill (endurance); format: in vivo; settings: olive extract containing 50% hydroxytyrosol, 50, 150 or 300 mg/kg body weight per day by gavage, 3 weeks
Source text: The purpose of the study was to determine the effect of hydroxytyrosol on maximal running performance on a treadmill.
In short, forty mice (C57BL/6NCrl; 8 wks old) were purchased from Charles River (Sulzfeld, Germany) and housed individually with free access to water and feed, with an alternating 12-hour light-dark cycle. The animals were fed a standard rodent diet (Ssniff R/M-H, Ext. n° V1536, Ssniff Ltd., Soest, Germany). After 2 weeks of adaptation to the diet the mice were randomized according to body weight into four experimental groups of 10 animals. The four groups were treated orally every morning for 3 weeks with either water (control group) or with an olive extract diluted to 0.2 ml with water and containing 50% hydroxytyrosol at doses of 50, 150, or 300 mg/kg body weight per day. There was no difference in feed consumption over the whole experiment. After 3 weeks of treatment the maximal running distance on a treadmill was measured. Statistical significance of the mean differences between dietary groups was tested by one-way analysis of variance (ANOVA). If significant differences were found, the Dunnett's test for multiple comparison was used to compare each group to the control group. P values less than 0.05 were considered significant.

OCCc1ccc(O)c(O)c1 [hydroxytyrosol, 3,4-dihydroxyphenylethanol]
PGC-1α protein expression (PGC-1α:α-tubulin ratio, vs. control) [1]: 205±52% | mitochondrial electron transport complex I protein (vs. control) ([2]; 0.1 μM, p<0.05): 131±16% | mitochondrial electron transport complex I protein (vs. control) ([2]; 1.0 μM, p<0.01): 163±31% | mitochondrial electron transport complex I protein (vs. control) ([2]; 10.0 μM, p<0.05): 138±21% | increase of endurance [3]: up to 50%
